Measured values as given in publication PMC11192711, “Automated radiosynthesis and preclinical evaluation of two new PSMA-617 derivatives radiolabelled via [^18F]AlF^2+ method” (EJNMMI Radiopharmacy and Chemistry, 2024).

Tests used:
[1] = Stability in final solution (analytical HPLC and radio-TLC); assay type: physicochemical; settings: up to four hours after end of radiosynthesis, room temperature, HPLC and radio-TLC
Description: Chemical and radiochemical stability in the final solution were tested by analytical HPLC and radio-TLC (Additional file 1: S37–S41); samples of the purified product were analyzed up to four hours after the end of radiosynthesis, at time intervals of two hours and storing the vial at room temperature.
Stability in solution of [^18F]F-PSMA-617-NODA ([^18F]1) and [^18F]F-PSMA-617-RESCA ([^18F]2) were evaluated injecting in RP-HPLC (for experimental conditions, see sections “(((S)-5-((S)-2-((1R,4S)-4-((4-(4,7-bis(carboxymethyl)-1,4,7-triazonan-1-yl)butanamido)methyl)cyclohexane-1-carboxamido)-3-(naphthalen-2-yl)propanamido)-1-carboxypentyl)carbamoyl)-L-glutamic acid [^18F] aluminium fluoride ([^18F] 1)” and “(((S)-5-((S)-2-((1R,4S)-4-((2-(4-((((1R,2R)-2-(bis(carboxymethyl)amino)cyclohexyl)(carboxymethyl)amino)methyl)phenyl)acetamido)methyl)cyclohexane-1-carboxamido)-3-(naphthalen-2-yl)propanamido)-1-carboxypentyl)carbamoyl)-L-glutamic acid [18F] aluminium fluoride ([18F] 2)”) samples (20 µl) of respective radiopharmaceutical solutions at t = 0 (EOS), after 2 h and after 4 h. Moreover, ≈ 7.5 kBq of [^18F]1 or [^18F]2 solution were deposited on TLC sheet. The TLC was imaged using Cyclone® Plus Phosphor Scanner and software OptiQuant™.

[2] = test system: Gli36ΔEGFR tumours-bearing nude mice; assay: PET/CT in vivo biodistribution and tumour uptake in orthotopic Gli36ΔEGFR glioma model; settings: n = 3; for Bone (SUV mean) / Brain (SUV mean) / Colon (SUV mean) / Gall bladder (SUV mean) / Heart (SUV mean) / Kidney (SUV mean) / Liver (SUV mean) / Lung (SUV mean) / Muscle (SUV mean) / Salivary gland (SUV mean) / Small instestine (SUV mean): Gli36ΔEGFR female nude mice, i.v., PET/CT; for tumour-to-contralateral healthy brain ratio (tumour SUV max/contralateral SUV mean): Gli36ΔEGFR orthotopic glioma, nude mice
Description: Subsequently, we evaluated the uptake of [^18F]F-PSMA-617-NODA ([^18F]1) and [^18F]F-PSMA-617-RESCA ([^18F]2) in an orthotopic glioma model obtained with Gli36ΔEGFR cells in female nude mice. Gli36ΔEGFR tumours-bearing nude mice (n = 3) were injected i.v. with either [^18F]F-PSMA-617-NODA or [^18F]F-PSMA-617-RESCA (~ 3.8 MBq/mouse, ~ 50 pmol for [^18F]1 and ~ 170 pmol [^18F]2). Radiotracer uptake was assessed after 10, 60 and 120 min post injection by whole-body PET/CT acquisitions. Also in nude female mice, a rapid clearance of [^18F]1 in all organs and the same kinetic observed in NSG male mice (Additional file 1: S71A and B) were confirmed. […] It is interesting to note that the uptake of [^18F]1 in kidneys decreased over time in both models (Additional file 1: S71A and B), while the uptake of [^18F]F-PSMA-1007 in NSG model and [^18F]2 in nude female mice model increased (Additional file 1: S71C and D).
Total body biodistribution of [^18F]F-PSMA-1007, [^18F]F-PSMA-617-NODA and [^18F]F-PSMA-617-RESCA was evaluated in vivo using imaging PET/CT. [^18F]F-PSMA-617-NODA uptake was compared to that of the [^18F]F-PSMA-1007 in a PSMA positive prostate tumour xenograft model (LNCaP). [^18F]F-PSMA-617-NODA and [^18F]F-PSMA-617-RESCA uptake were also evaluated using an orthotopic glioma model (Gli36ΔEGFR).
5 × 10^5 Gli36ΔEGFR cells were injected in the right striatum of seven to eight weeks old female nude mice (Envigo RMS s.r.l., Italy) as previously described (Valtorta et al. [2021]). Ten days after mice underwent a T2-weighted Magnetic Resonance Imaging (MRI) using a 7 T small animal magnetic resonance scanner (Bruker, BioSpec 70/30 USR, Paravision 5.1, Germany) to confirm the growth of the tumour. Then, the same mice underwent in vivo biodistribution of [^18F]F-PSMA-617-NODA and [^18F]F-PSMA-617-RESCA, on successive but non-consecutive days, using PET/CT.
Mice were injected into a tail vein with 3.8 ± 0.1 MBq of [^18F]F-PSMA-1007, 4.0 ± 0.2 MBq of [^18F]F-PSMA-617-NODA ([^18F]1) and 3.8 ± 0.1 MBq of [^18F]F-PSMA-617-RESCA ([^18F]2), respectively.
Total body PET/CT acquisitions were performed using PET/CT tomographs dedicated to small animals, X-ß-CUBE (Molecubes, Gent, Belgium) after 10, 60 and 120 min from tracer injection. Each acquisition lasted 30 min and mice were maintained anesthetized (4% isoflurane in induction and 2% in maintenance in air) during acquisition.
Image quantification analysis was performed with PMOD 4.105 software (Zurich, Switzerland). Volumes of interest (VOIs) were drawn on peripheral organs (tumour, thoracic muscle, heart, liver, kidney, salivary glands, lung, small intestine, colon, bone, gall bladder) and on the healthy brain using CT images. For the glioma model, PET/CT images were co-registered to MRI images and two different VOIs were defined: (1) a control VOI covering the healthy left striatum (volume 4 mm^3) was drawn on the axial MR images, adjusted on the other imaging planes and then copied on the PET images of each mouse; (2) a second glioma-covering VOI was drawn in the tumour-affected brain hemisphere and centered on mice lesions.
For quantification, Standardized Uptake Value (SUV) was calculated according to the formula:
SUV = organ concentration activity [MBq/g]/(injected activity [MBq]/animal weight [g]).
The data were expressed as standardized-uptake-values (SUVmean and SUVmax) and as tumour-to-muscle (T/M) and tumour-to-blood (T/B) ratio in PCa model and as tumour-to-contralateral (T/Cl) ratio in glioma model.

SMILES: O=C(O)CCC(NC(=O)NC(CCCCNC(=O)C(Cc1ccc2ccccc2c1)NC(=O)C1CCC(CNC(=O)CCCN2CCN(CC(=O)O)CCN(CC(=O)O)CC2)CC1)C(=O)O)C(=O)O.[18F][Al] [[^18F]F-PSMA-617-NODA, (((S)-5-((S)-2-((1R,4S)-4-((4-(4,7-bis(carboxymethyl)-1,4,7-triazonan-1-yl)butanamido)methyl)cyclohexane-1-carboxamido)-3-(naphthalen-2-yl)propanamido)-1-carboxypentyl)carbamoyl)-L-glutamic acid [^18F] aluminium fluoride]
- Chemical and radiochemical stability in the final solution ([1]; listed as [^18F]1): stable and no loss of radioactivity due to radiolytic degradation and aluminum fluoride release were detected
- Chemical and radiochemical stability in the final solution ([1]; listed as [^18F]PSMA-617-NODA): neither the release of [^18F]AlF^2+ in solution, nor the formation of other degradation by-products was noticed
- Bone (SUV mean) ([2]; 10 min p.i.): 0.18 ± 0.09
- Brain (SUV mean) ([2]; 10 min p.i.): 0.06 ± 0.01
- Colon (SUV mean) ([2]; 10 min p.i.): 0.37 ± 0.08
- Gall bladder (SUV mean) ([2]; 10 min p.i.): 0.33 ± 0.11
- Heart (SUV mean) ([2]; 10 min p.i.): 0.26 ± 0.05
- Kidney (SUV mean) ([2]; 10 min p.i.): 13.11 ± 1.60
- Liver (SUV mean) ([2]; 10 min p.i.): 0.22 ± 0.01
- Lung (SUV mean) ([2]; 10 min p.i.): 0.20 ± 0.04
- Muscle (SUV mean) ([2]; 10 min p.i.): 0.14 ± 0.01
- Salivary gland (SUV mean) ([2]; 10 min p.i.): 0.54 ± 0.17
- Small instestine (SUV mean) ([2]; 10 min p.i.): 0.32 ± 0.05
- Bone (SUV mean) ([2]; 60 min p.i.): 0.13 ± 0.08
- Brain (SUV mean) ([2]; 60 min p.i.): 0.03 ± 0.01
- Colon (SUV mean) ([2]; 60 min p.i.): 0.27 ± 0.13
- Gall bladder (SUV mean) ([2]; 60 min p.i.): 0.10 ± 0.03
- Heart (SUV mean) ([2]; 60 min p.i.): 0.10 ± 0.03
- Kidney (SUV mean) ([2]; 60 min p.i.): 13.32 ± 2.23
- Liver (SUV mean) ([2]; 60 min p.i.): 0.11 ± 0.01
- Lung (SUV mean) ([2]; 60 min p.i.): 0.09 ± 0.04
- Muscle (SUV mean) ([2]; 60 min p.i.): 0.07 ± 0.01
- Salivary gland (SUV mean) ([2]; 60 min p.i.): 0.24 ± 0.09
- Small instestine (SUV mean) ([2]; 60 min p.i.): 0.25 ± 0.06
- Bone (SUV mean) ([2]; 120 min p.i.): 0.12 ± 0.09
- Brain (SUV mean) ([2]; 120 min p.i.): 0.02 ± 0.01
- Colon (SUV mean) ([2]; 120 min p.i.): 0.16 ± 0.03
- Gall bladder (SUV mean) ([2]; 120 min p.i.): 0.04 ± 0.01
- Heart (SUV mean) ([2]; 120 min p.i.): 0.04 ± 0.002
- Kidney (SUV mean) ([2]; 120 min p.i.): 9.30 ± 3.60
- Liver (SUV mean) ([2]; 120 min p.i.): 0.05 ± 0.01
- Lung (SUV mean) ([2]; 120 min p.i.): 0.04 ± 0.01
- Muscle (SUV mean) ([2]; 120 min p.i.): 0.03 ± 0.01
- Salivary gland (SUV mean) ([2]; 120 min p.i.): 0.08 ± 0.04
- Small instestine (SUV mean) ([2]; 120 min p.i.): 0.15 ± 0.06
- tumour-to-contralateral healthy brain ratio (tumour SUV max/contralateral SUV mean) ([2]; 60 min p.i.): 7.75 ± 3.06
- tumour-to-contralateral healthy brain ratio (tumour SUV max/contralateral SUV mean) ([2]; 120 min p.i.): 10.92 ± 3.56
